Our source for the EC50 values is patent US11078216B2, “Bisaryl amides as NRF2 activators” (GLAXOSMITHKLINE INTELLECTUAL PROPERTY DEVELOPMENT LIMITED, priority 2016, dated 2021).

This test concerns NRF2 (NQO1 activity as marker for NRF2 activation), BEAS-2B cells. Kind of test: BEAS-2B NQO1 MTT Assay. Conditions: Homo sapiens. The format is cell-based. The gist of the method:
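As a marker of NRF2 activation, NQO1 specific activity was read from the rate of absorbance change at 570 nm in MTT cocktail over 30 minutes. Lysates came from BEAS-2B cells treated for 48 hours at 37° C, and EC50 was derived by 3-parameter fitting.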

The mark [1] stands for this setting: EC50 of NQO1 specific activity induction, 48 hours incubation, read-out: EC50.

Where a name gives a salt, the structure may show the parent alone. Read-outs that look alike come from different tables or passages of the source.

As to `CC[C@@H]1CN(Cc2cc([C@H](CC(=O)NCCOC)c3ccc4c(nnn4CC)c3C)ccc2C)S(=O)(=O)c2cccnc2O1` [Example 41, (S)-3-(3-(((R)-4-Ethyl-1,1-dioxido-3,4-dihydro-2H-pyrido[2,3-b][1,4,5]oxathiazepin-2-yl)methyl)-4-methylphenyl)-3-(1-ethyl-4-methyl-1H-benzo[d][1,2,3]triazol-5-yl)-N-(2-methoxyethyl)propanamide], under setting [1], the EC50 (usually the concentration at which the effect is half-maximal) was 100 to 1000 nM. On to `CC[C@@H]1CN(Cc2cc([C@H](CC(=O)NCC(=O)NC(C)C)c3ccc4c(nnn4CC)c3C)ccc2C)S(=O)(=O)c2cccnc2O1` [Example 42, (S)-3-(3-(((R)-4-Ethyl-1,1-dioxido-3,4-dihydro-2H-pyrido[2,3-b][1,4,5]oxathiazepin-2-yl)methyl)-4-methylphenyl)-3-(1-ethyl-4-methyl-1H-benzo[d][1,2,3]triazol-5-yl)-N-(2-(isopropylamino)-2-oxoethyl)propanamide], for which the EC50 under setting [1] is 1000 to 10000 nM. On the same count and under the same terms, as for `CC[C@@H]1CN(Cc2cc([C@H](CC(=O)NC(C)C(N)=O)c3ccc4c(nnn4CC)c3C)ccc2C)S(=O)(=O)c2cccnc2O1` (stereo partly drawn) [Example 43, (3S)—N-(1-Amino-1-oxopropan-2-yl)-3-(3-(((R)-4-ethyl-1,1-dioxido-3,4-dihydro-2H-pyrido[2,3-b][1,4,5]oxathiazepin-2-yl)methyl)-4-methylphenyl)-3-(1-ethyl-4-methyl-1H-benzo[d][1,2,3]triazol-5-yl)propanamide], the figure is 100 to 1000 nM; as for `CC[C@@H]1CN(Cc2cc([C@H](CC(=O)NCCCC#N)c3ccc4c(nnn4CC)c3C)ccc2C)S(=O)(=O)c2cccnc2O1` [Example 44, (S)-N-(3-Cyanopropyl)-3-(3-(((R)-4-ethyl-1,1-dioxido-3,4-dihydro-2H-pyrido[2,3-b][1,4,5]oxathiazepin-2-yl)methyl)-4-methylphenyl)-3-(1-ethyl-4-methyl-1H-benzo[d][1,2,3]triazol-5-yl)propanamide], 100 to 1000 nM. Take `CC[C@@H]1CN(Cc2cc([C@H](CC(=O)NCCNC(C)=O)c3ccc4c(nnn4CC)c3C)ccc2C)S(=O)(=O)c2cccnc2O1` [Example 45, (S)—N-(2-Acetamidoethyl)-3-(3-(((R)-4-ethyl-1,1-dioxido-3,4-dihydro-2H-pyrido[2,3-b][1,4,5]oxathiazepin-2-yl)methyl)-4-methylphenyl)-3-(1-ethyl-4-methyl-1H-benzo[d][1,2,3]triazol-5-yl)propanamide]: the EC50 runs as follows: under setting [1], 100 to 1000 nM; (in some determinations, read-out: EC50 values in some determinations) below 0.17 nM.

As to `CC[C@@H]1CN(Cc2cc([C@@H](CC(=O)Nc3cccnc3)c3ccc4c(nnn4C)c3C)ccc2C)Cc2ncccc2O1` [Example 46, (R)-3-(1,4-Dimethyl-1H-benzo[d][1,2,3]triazol-5-yl)-3-(3-(((R)-2-ethyl-2,3-dihydropyrido[2,3-f][1,4]oxazepin-4(5H)-yl)methyl)-4-methylphenyl)-N-(pyridin-3-yl)propanamide, Formic Acid Salt], the EC50 under setting [1] lay in the range of 1000 to 10000 nM. The same measure, in the same setting: as for `CC[C@@H]1CN(Cc2cc([C@H](CC(=O)Nc3cccnc3)c3ccc4c(nnn4C)c3C)ccc2C)Cc2ncccc2O1` [Example 47, (S)-3-(1,4-Dimethyl-1H-benzo[d][1,2,3]triazol-5-yl)-3-(3-(((R)-2-ethyl-2,3-dihydropyrido[2,3-f][1,4]oxazepin-4(5H)-yl)methyl)-4-methylphenyl)-N-(pyridin-3-yl)propanamide, Formic Acid Salt], the figure is 100 to 1000 nM; as for `CCn1cc(CO[C@H](c2ccc(C)c(CN3C[C@@H](C)Cc4ccncc4S3(=O)=O)c2)C(C)(C)C(=O)Nc2cccnc2)nn1` [Example 48, (R)-3-((1-Ethyl-1H-1,2,3-triazol-4-yl)methoxy)-2,2-dimethyl-3-(4-methyl-3-(((S)-4-methyl-1,1-dioxido-4,5-dihydropyrido[4,3-f][1,2]thiazepin-2(3H)-yl)methyl)phenyl)-N-(pyridin-3-yl)propanamide, Formic Acid Salt], 100 to 1000 nM.
